# Test results taken from patent US9012182B2, “Method for producing purine nucleosides and nucleotides by fermentation using bacterium belonging to the genus Bacillus or Escherichia” (Ajinomoto Co., Inc., priority 2004, dated 2015).
# How the values were obtained:
# Format in all cases: cell-based
# B. subtilis 168(pYDHL4) = assay: Growth on M9 glucose minimal agar with purine analogues, ydhLBa-amplified strain; conditions: 48 h at 34° C. Note: key: +: good growth; −: no growth.
# Protocol: (§1) The pYDHL3, pYDHL4 plasmids and the pMWMX1 vector were used to transform wild-type B. subtilis strain 168 via standard techniques. Transformants were selected on L-broth agar plates with 10 μg/ml erythromycin. Thus, the strains B. subtilis 168(pMWMX1), B. subtilis 168(pYDHL3) and B. subtilis 168(pYDHL4) were obtained. Then, the ability of these strains to grow in the presence of purine base analogues was determined on M9 glucose minimal agar plates (minimal medium M9, glucose-2%, vitamin assay casamino acids (Difco)—0.1%, tryptophan—100 μg/ml) containing graded concentrations of a purine analogue. The plates were spotted with 10^5 to 10^6 cells from an overnight culture grown on the above agar plates without the analogues. The growth was estimated after 48 h incubation at 34° C.
# [1] = test system: E. coli strain TG1 (pYDHL1); assay: Growth on M9 glucose minimal agar with purine base analogues, ydhL-amplified strain; conditions: 44 h at 37° C. Note: key: +: good growth; −: no growth.
# Protocol: (§2) The pYDHL1 plasmid and the vector were used to transform the E. coli strain TG1 (Amersham Pharmacia Biotech) via standard techniques. Transformants were selected on L-broth agar plates with 100 μg/ml ampicillin. Thus, the E. coli strains TG1 (pYDHL1) and TG1 (pMW118) were obtained. Then the ability of these strains to grow in the presence of purine base analogues was determined on M9 glucose minimal agar plates containing graded concentrations of an inhibitor. The plates were spotted with 10^5 to 10^6 cells from an overnight culture grown in a minimal medium (supplemented with 100 μg/ml of ampicillin). The growth was estimated after 44 h incubation at 37° C.
# B. subtilis 168 = assay: Growth on M9 glucose minimal agar with purine analogues, control strain; conditions: 48 h at 34° C.
# Protocol: as §1
# [2] = test system: E. coli strain TG1 (pMW118); assay: Growth on M9 glucose minimal agar with purine base analogues, vector control strain; conditions: 44 h at 37° C. Note: key: +: good growth; −: no growth.
# Protocol: as §2
# B. subtilis 168(pYDHL3) = assay: Growth on M9 glucose minimal agar with purine analogues, ydhLBs-amplified strain; conditions: 48 h at 34° C. Note: key: +: good growth; −: no growth.
# Protocol: as §1
# [3] = test system: E. coli deoD gsk3 (pMW118); assay: Growth on minimal medium with inosine or guanosine, vector control strain; note: key: +: good growth; −: no growth
# Protocol: as §2
# (§3) The pYDHL1 plasmid and the pMW118 vector were also transformed into the E. coli strain TG1 deoD gsk3. The E. coli strain TG1 deoD gsk3 was an especially constructed parental strain which is used for checking the resistance to inosine and guanosine. This strain was obtained by sequential introduction of a deoD mutation, as described in PCT application WO9903988 and gsk3 mutation described by Petersen C. (J. Biol. Chem., 274, 5348-5356, 1999) using phage P1-mediated transduction into the known strain TG1 (VKPM B-5837), which is resistant to inosine and guanosine due to its ability to degrade purine. The strain TG1 deoD gsk3 cannot degrade guanosine and inosine due to a deoD mutation (WO9903988), and it is sensitive to nucleosides due to a gsk3 mutation (Petersen C. J. Biol. Chem., 274, 5348-5356, 1999). Thus, the strains TG1 deoD gsk3 (pYDHL1) and TG1 deoD gsk3 (pMW118) were obtained. Then the ability of these strains to grow in the presence of inosine and guanosine was determined as above.
# [4] = test system: E. coli deoD gsk3 (pYDHL1); assay: Growth on minimal medium with inosine or guanosine, ydhL-amplified strain; conditions: for Resistance conferred by ydhL gene overexpression: summary in words of Table 2, pYDHL1 versus pMW118; for Growth on the minimal medium containing Guanosine 10 mg/l: key: +: good growth; −: no growth; for Growth on the minimal medium containing Guanosine 15 mg/l: key: +: good growth; −: no growth; for Growth on the minimal medium containing Inosine 1000 mg/l: key: +: good growth; −: no growth; for Growth on the minimal medium containing Inosine 300 mg/l: key: +: good growth; −: no growth
# Protocol: as §2, §3
structure (smiles),measurement,setting,value
"Nc1ncnc2nn[nH]c12 [AzaA, 8-azaadenine]","Growth on the minimal medium containing AzaA, 2 mg/ml",B. subtilis 168(pYDHL4); AzaA 2 mg/ml,+
same,"Growth on the minimal medium containing AzaA, 300 μg/ml",[1]; AzaA 300 μg/ml,+
same,"Growth on the minimal medium containing AzaA, 2 mg/ml",B. subtilis 168; AzaA 2 mg/ml,−
same,"Growth on the minimal medium containing AzaA, 300 μg/ml",[2]; AzaA 300 μg/ml,−
"Nc1nc2nn[nH]c2c(=O)[nH]1 [AzaG, 8-azaguanine]","Growth on the minimal medium containing AzaG, 2 μg/ml",B. subtilis 168(pYDHL3); AzaG 2 μg/ml,+
same,"Growth on the minimal medium containing AzaG, 2 μg/ml",B. subtilis 168(pYDHL4); AzaG 2 μg/ml,+
same,"Growth on the minimal medium containing AzaG, 10 μg/ml",B. subtilis 168(pYDHL4); AzaG 10 μg/ml,+
same,"Growth on the minimal medium containing AzaG, 2 μg/ml",B. subtilis 168; AzaG 2 μg/ml,−
same,"Growth on the minimal medium containing AzaG, 10 μg/ml",B. subtilis 168; AzaG 10 μg/ml,−
"Nc1nc(N)c2[nH]cnc2n1 [DAP, 2,6-diaminopurine]","Growth on the minimal medium containing DAP, 400 μg/ml",[1]; DAP 400 μg/ml,+
same,"Growth on the minimal medium containing DAP, 400 μg/ml",[2]; DAP 400 μg/ml,−
Nc1nc2c(ncn2[C@@H]2O[C@H](CO)[C@@H](O)[C@H]2O)c(=O)[nH]1 [Guanosine],Growth on the minimal medium containing Guanosine 10 mg/l,[3]; guanosine 10 mg/l,−
same,Growth on the minimal medium containing Guanosine 15 mg/l,[3]; guanosine 15 mg/l,−
same,Growth on the minimal medium containing Guanosine 10 mg/l,"[4]; guanosine 10 mg/l, E. coli deoD gsk3 (pYDHL1)",+
same,Growth on the minimal medium containing Guanosine 15 mg/l,"[4]; guanosine 15 mg/l, E. coli deoD gsk3 (pYDHL1)",−
same,Resistance conferred by ydhL gene overexpression,[4],low-level resistance
OC[C@H]1O[C@@H](n2cnc3c(O)ncnc32)[C@H](O)[C@@H]1O [Inosine],Growth on the minimal medium containing Inosine 300 mg/l,[3]; inosine 300 mg/l,−
same,Growth on the minimal medium containing Inosine 1000 mg/l,[3]; inosine 1000 mg/l,−
same,Growth on the minimal medium containing Inosine 300 mg/l,"[4]; inosine 300 mg/l, E. coli deoD gsk3 (pYDHL1)",+
same,Growth on the minimal medium containing Inosine 1000 mg/l,"[4]; inosine 1000 mg/l, E. coli deoD gsk3 (pYDHL1)",+
same,Resistance conferred by ydhL gene overexpression,[4],high-level resistance
"Sc1ncnc2nc[nH]c12 [MP, 6-mercaptopurine]","Growth on the minimal medium containing MP, 400 μg/ml",[1]; MP 400 μg/ml,+
same,"Growth on the minimal medium containing MP, 400 μg/ml",[2]; MP 400 μg/ml,−
"Cc1ncnc2nc[nH]c12 [MePur, 6-methylpurine]","Growth on the minimal medium containing MePur, 20 μg/ml",B. subtilis 168(pYDHL3); MePur 20 μg/ml,+
same,"Growth on the minimal medium containing MePur, 20 μg/ml",B. subtilis 168(pYDHL4); MePur 20 μg/ml,+
same,"Growth on the minimal medium containing MePur, 20 μg/ml",B. subtilis 168; MePur 20 μg/ml,−
